Measured values: US9573938B2 (priority 2012, dated 2017)
“And” between values parts separate entries of the source, which are not always exact repeats. Identical values can stand only once. Like-named read-outs stand apart in the source and are kept apart here.

Columns and labels:
[1] = target: 2009 H1N1 influenza A endonuclease (PAN domain) (Influenza A virus, UniProt C3W5S0); experiment: biochemical; set-up: species or system Influenza A (pandemic 2009 H1N1); details: fluorescence change over time at 37 degrees Celsius
[2] = IC50 (uM) using either 500 nM or 50 nM enzyme
[3] = 500 nM or 50 nM enzyme, read-out: IC50 (uM) using either 500 nM or 50 nM enzyme

| Structure (SMILES) | IC50 [1, 2] | IC50 [1, 3] [µM] | melting point [°C] |
| --- | --- | --- | --- |
| O=C(O)c1cccc(-c2cc(O)c(=O)[nH]c2-c2ccc(F)cc2)c1 [3-(2-(4-Fluorophenyl)-5-hydroxy-6-oxo-1,6-dihydropyridin-3-yl)benzoic acid] | 0.035 µM |  |  |
| O=c1[nH]c(C2CCCCC2)ccc1O [6-Cyclohexyl-3-hydroxypyridin-2(1H)-one] | 2.5 µM |  |  |
| N#Cc1ccc(-c2cc(O)c(=O)[nH]n2)cc1 [4-(5-Hydroxy-6-oxo-1,6-dihydropyridazin-3-yl)benzonitrile] |  | 9.3 | 305 to 307 |
| O=c1[nH]cc(Cc2ccc(F)cc2)cc1O [5-(4-Fluorobenzyl)-3-hydroxypyridin-2(1H)-one] | 8.6 µM |  |  |
| N#Cc1ccc(Nc2cc(O)c(=O)[nH]c2-c2ccc(F)cc2)cc1 [4-((2-(4-Fluorophenyl)-5-hydroxy-6-oxo-1,6-dihydropyridin-3-yl)amino)benzonitrile] | 1 µM |  |  |
| N#Cc1ccc(-c2c[nH]c(=O)c(O)c2)cc1 [5-(p-Cyanophenyl-3-hydroxypyridin-2(1H)-one] | 6.07 µM |  |  |
| O=c1[nH]c(-c2ccc(F)cc2)c(-c2ccc(-c3nnn[nH]3)cc2)cc1O [5-[4-(1H-Tetrazol-5-yl)phenyl]-6-(4-fluorophenyl)-3-hydroxypyridin-2(1H)-one] |  |  | 185 to 188 |
| O=c1[nH]cc(-c2ccc(F)cc2)cc1O [5-(4-Fluorophenyl)-3-hydroxypyridin-2(1H)-one] |  | 0.73 |  |
| O=C(O)c1cccc(-c2cc(O)c(=O)[nH]c2-c2cccc(C(=O)O)c2)c1 [3,3′-(5-Hydroxy-6-oxo-1,6-dihydropyridine-2,3-diyl)dibenzoic acid] | 0.7 µM |  |  |
| O=c1[nH]c(-c2cccc(F)c2)ccc1O [6-(3-Fluorophenyl)-3-hydroxypyridin-2(1H)-one] | 0.53 µM |  |  |
| N#Cc1cccc(-c2ncc(O)c(=O)[nH]2)c1 [3-(5-Hydroxy-6-oxo-1,6-dihydropyrimidin-2-yl)benzonitrile] |  | 0.25 |  |
| COc1ccc(-c2ccc(O)c(=O)[nH]2)cc1 [3-Hydroxy-6-(4-methoxyphenyl)pyridin-2(1H)-one] | 1.2 µM |  |  |
| O=c1[nH]c(-c2ccc(F)cc2)c(-c2ccc(F)cc2)cc1O [5,6-bis(4-Fluorophenyl)-3-hydroxypyridin-2(1H)-one] |  |  | 152 to 157 |
| N#Cc1ccc(-c2ncc(O)c(=O)[nH]2)cc1 [4-(5-Hydroxy-6-oxo-1,6-dihydropyrimidin-2-yl)benzonitrile] |  | 0.52 |  |
| O=c1[nH]cc(-c2cccc(F)c2)cc1O [5-(3-Fluorophenyl-3-hydroxypyridin-2(1H)-one] | 0.74 µM |  |  |
| O=c1[nH]c(-c2ccc(-c3nnn[nH]3)cc2)ccc1O [6-[4-(1H-tetrazol-5-yl)phenyl]-3-hydroxypyridin-2(1H)-one] | 0.85 µM |  |  |
| O=c1[nH]nc(-c2ccc(-c3nnn[nH]3)cc2)cc1O [6-(4-(1H-Tetrazol-5-yl)phenyl)-4-hydroxypyridazin-3(2H)-one] |  | 3 |  |
| O=C(O)c1cccc(-c2c[nH]c(=O)c(O)c2)c1 [3-(5-Hydroxy-6-oxo-1,6-dihydropyridin-3-yl)benzoic acid] | 1.79 µM |  |  |
| O=c1[nH]c(-c2ccc(C(F)(F)F)cc2)ccc1O [3-Hydroxy-6-(4-(trifluoromethyl)phenyl)pyridin-2(1H)-one] | 0.4 µM |  |  |
| O=c1[nH]cc(C2CCCCC2)cc1O [5-Cyclohexyl-3-hydroxypyridin-2(1H)-one] | 2.1 µM |  |  |
| O=c1[nH]c(C2=CCCCC2)ccc1O [6-(Cyclohex-1-en-1-yl)-3-hydroxypyridin-2(1H)-one] | 0.75 µM |  |  |
| O=c1[nH]cc(Cl)cc1O [5-Chloro-3-hydroxypyridin-2(1H)-one] | 5 µM |  |  |
| O=c1[nH]c(-c2ccc(F)cc2)ncc1O [2-(4-Fluorophenyl)-5-hydroxypyrimidin-4(3H)-one] |  | 0.58 | 252 to 254 |
| O=c1[nH]c(-c2ccc([N+](=O)[O-])cc2)c(-c2ccc([N+](=O)[O-])cc2)cc1O [3-Hydroxy-5,6-bis(4-nitrophenyl)pyridin-2(1H)-one] | 0.72 µM |  |  |
| N#Cc1ccc(-c2cc(O)c(=O)[nH]c2-c2ccc(F)cc2)cc1 [5-(4-Cyanophenyl)-6-(4-fluorophenyl)-3-hydroxypyridin-2(1H)-one] | 0.136 µM |  | 255 to 257 |
| O=c1[nH]cnc(-c2ccc(F)cc2)c1O [6-(4-Fluorophenyl)-5-hydroxypyrimidin-4(3H)-one] | 193 µM |  | 285 to 287 |
| O=c1[nH]c(Cc2ccc(-c3ccccc3)cc2)c(-c2ccc(F)cc2)cc1O [6-([1,1′-Biphenyl]-4-ylmethyl)-5-(4-fluorophenyl)-3-hydroxypyridin-2(1H)-one] | 0.12 µM |  |  |

| Structure (SMILES) | IC50 [1, 2] | IC50 [1, 3] [µM] | melting point [°C] |
| --- | --- | --- | --- |
| CC(C)(C)c1ccc(-c2ccc(O)c(=O)[nH]2)cc1 [6-(4-(tert-Butyl)phenyl)-3-hydroxypyridin-2(1H)-one] | 1.6 µM |  |  |
| NC(=O)c1cccc(-c2cc(O)c(=O)[nH]c2-c2cccc(C(N)=O)c2)c1 | 0.11 µM |  |  |
| O=c1[nH]c(-c2ccc(F)cc2)c(-c2cccc(-c3nnn[nH]3)c2)cc1O [5-(3-(1H-Tetrazol-5-yl)phenyl)-6-(4-fluorophenyl)-3-hydroxypyridin-2(1H)-one] | 0.034 µM |  |  |
| O=c1[nH]c(-c2ccc(-c3nnn[nH]3)cc2)ncc1O [2-(4-(1H-Tetrazol-5-yl)phenyl)-5-hydroxypyrimidin-4(3H)-one] |  | 0.15 |  |
| O=c1[nH]c(-c2ccccc2)c(-c2ccccc2)cc1O [5,6-bis(phenyl)-3-hydroxypyridin-2(1H)-one] | 0.12 µM and 0.047 µM |  | 249 to 255 |
| O=c1[nH]cc(-c2ccc(-c3nnn[nH]3)cc2)cc1O [5-[4-(1H-Tetrazol-5-yl)phenyl]-3-hydroxypyridin-2(1H)-one] | 0.37 µM |  |  |
| O=C(O)c1ccc(-c2c[nH]c(=O)c(O)c2)cc1 [4-(5-Hydroxy-6-oxo-1,6-dihydropyridin-3-yl)benzoic acid] | 0.51 µM |  |  |
| O=c1[nH]cc(-c2cccc(-c3nnn[nH]3)c2)cc1O [5-[3-(1H-Tetrazol-5-yl)phenyl]-3-hydroxypyridin-2(1H)-one] | 0.85 µM |  |  |
| O=c1[nH]c(-c2ccc(O)c(O)c2)ccc1O [6-(3,4-Dihydroxyphenyl)-3-hydroxypyridin-2(1H)-one] | 0.6 µM |  |  |
| O=c1[nH]ncc(-c2ccc(F)cc2)c1O [5-(4-Fluorophenyl)-4-hydroxypyridazin-3(2H)-one] | > 200 µM |  | 274 to 276 |
| NC(=O)c1ccc(-c2cc(O)c(=O)[nH]c2-c2ccc(C(N)=O)cc2)cc1 | 0.23 µM |  |  |
| N#Cc1cccc(-c2cc(O)c(=O)[nH]c2-c2ccc(F)cc2)c1 [3-(2-(4-Fluorophenyl)-5-hydroxy-6-oxo-1,6-dihydropyridin-3-yl)benzonitrile] | 0.049 µM |  |  |
| N#Cc1ccc(-c2cc(O)c(=O)[nH]c2-c2ccc(C#N)cc2)cc1 [5,6-bis(4-Cyanophenyl)-3-hydroxypyridin-2(1H)-one] | 0.1 µM |  | 159 to 162 |
| O=c1[nH]c(-c2ccc(-c3nnn[nH]3)cc2)c(-c2ccc(-c3nnn[nH]3)cc2)cc1O [5,6-bis[4-(1H-Tetrazol-5-yl)phenyl]-3-hydroxypyridin-2(1H)-one] | 0.29 µM |  | 180 to 182 |
| O=c1[nH]c(Br)c(-c2ccc(F)cc2)cc1O [6-Bromo-5-(4-fluorophenyl)-3-hydroxypyridin-2(1H)-one] | 4.2 µM |  |  |
| N#Cc1ccc(-c2ccc(O)c(=O)[nH]2)cc1 [6-(4-Cyanophenyl-3-hydroxypyridin-2(1H)-one] | 1.2 µM |  |  |
| O=c1[nH]c(-c2cccc(-c3nnn[nH]3)c2)ncc1O [2-(3-(1H-Tetrazol-5-yl)phenyl)-5-hydroxypyrimidin-4(3H)-one] |  | 0.48 |  |
| O=c1[nH]nc(-c2ccc(F)cc2)cc1O [6-(4-Fluorophenyl)-4-hydroxypyridazin-3(2H)-one] |  | 6 | 281 to 283 |
| O=c1[nH]cc(Br)cc1O [5-Bromo-3-hydroxypyridin-2(1H)-one] | 5 µM |  |  |
| O=C(O)c1ccc(-c2cc(O)c(=O)[nH]c2-c2ccc(C(=O)O)cc2)cc1 [4,4′-(5-hydroxy-6-oxo-1,6-dihydropyridine-2,3-diyl)dibenzoic acid] | 0.9 µM |  |  |
| O=c1[nH]c(-c2cccc(F)c2)c(-c2cccc(F)c2)cc1O [5,6-bis(3-Fluorophenyl)-3-hydroxypyridin-2(1H)-one] | 0.044 µM |  |  |
| O=c1[nH]c(-c2ccc(F)cc2)ccc1O [6-(4-Fluoro-phenyl)-3-hydroxypyridin-2(1H)-one] |  | 0.43 |  |
| O=c1[nH]c(Br)c(Br)cc1O [5,6-Dibromo-3-hydroxypyridin-2(1H)-one] | 1.5 µM |  |  |
| O=c1[nH]cc(-c2ccccc2)cc1O [5-Phenyl-3-hydroxypyridin-2(1H)-one] | > 10 µM |  | 175 to 177 |
| COc1cccc(-c2ccc(O)c(=O)[nH]2)c1 [6-(3-Methoxyphenyl)-3-hydroxypyridin-2(1H)one] | 0.54 µM |  |  |
| N#Cc1ccc(-c2[nH]c(=O)c(O)cc2-c2ccc(F)cc2)cc1 [5-(4-Fluorophenyl)-6-(4-cyanophenyl)-3-hydroxypyridin-2(1H)-one] | 0.054 µM |  | 255 to 258 |
| O=c1[nH]c(-c2ccc(-c3nnn[nH]3)cc2)c(-c2ccc(F)cc2)cc1O [6-(4-(1H-Tetrazol-5-yl)phenyl)-5-(4-fluorophenyl)-3-hydroxypyridin-2(1H)-one] | 0.018 µM |  |  |
